# Test results as given in paper PMC8781304, “Arene-Ruthenium(II) Complexes with Carbothiamidopyrazoles as a Potential Alternative for Antibiotic Resistance in Human” (Molecules, 2022).
# Like-named read-outs stand apart in the source and are kept apart here.
# Assays:
# S. aureus ATCC 29213 [1] = assay: Synergy with oxacillin and vancomycin, partial checkerboard broth microdilution; format: cell-based, Staphylococcus aureus; settings: S. aureus ATCC 29213; for FIC (Oxa) / FIC (Van): MIC antibiotic in combination/MIC antibiotic alone; for MIC Oxa in Combination: oxacillin with the complex at ½ MIC (NH4PF6 250 µg/mL); for MIC Van in Combination: vancomycin with the complex at ½ MIC (NH4PF6 250 µg/mL)
# [2] = tested on: S. epidermidis ATCC 12228; assay: Cell lysis (bacteriolysis, OD600); format: cell-based, Staphylococcus epidermidis; settings: 1 × MBC
# [3] = tested on: Staphylococcus aureus ATCC 29213; assay: Fluorescence microscopy, Hoechst 33258 / propidium iodide viability; format: cell-based; settings: S. aureus ATCC 29213; MIC concentration, 24 h
# Procedure: (§1) Staphylococcus aureus ATCC 29213 and Staphylococcus epidermidis ATCC 12228 strains were treated with tested compounds 2a–2d and 3a–3d at a concentration 1 × MIC for 24h, while untreated cells were used as a growth control. After incubation, the cells were harvested and a suspension of 1 × 10^5 cells/mL in PBS was prepared. Following this, 1 µl of the fluorescent dyes Hoechst 33258 and propidium iodide (15 µg/mL each) (Sigma, St. Louis, MO, USA) were added. The obtained mixture was incubated in the dark at room temperature for 15–20 min. After incubation, the cell suspensions, placed on glass slides, were analyzed under an Olympus IX 70 fluorescence microscope (Shinjuku, Tokyo, Japan), using a 360–370 nm UV filter. Photos were taken at 10 × 20 magnification.
# [4] = tested on: Staphylococcus epidermidis ATCC 12228; assay: as above; format: cell-based; settings: S. epidermidis ATCC 12228; MIC concentration, 24 h
# Procedure: as §1
# [5] = tested on: S. epidermidis ATCC 12228; assay: Synergy with oxacillin and vancomycin, partial checkerboard broth microdilution; format: cell-based, Staphylococcus epidermidis; settings: S. epidermidis ATCC 12228; for FIC (Oxa) / FIC (Van): MIC antibiotic in combination/MIC antibiotic alone; for MIC Oxa in Combination: oxacillin with the complex at ½ MIC (NH4PF6 250 µg/mL); for MIC Van in Combination: vancomycin with the complex at ½ MIC (NH4PF6 250 µg/mL)
# [6] = tested on: S. epidermidis ATCC 12228; assay: Time-kill test; format: cell-based, Staphylococcus epidermidis; settings: 1 × MIC
# Procedure: (§2) The time-kill experiments were performed as described previously. Briefly, inocula were prepared in TSB medium (TSB; […] BTL Sp. z o.o., Łódź, Poland). All samples were incubated at 35 °C and 80 rpm for varied time intervals (2, 4, 6, 12, 18, 24, 48h). The percentage of dead cells was calculated according to the growth control by determining the number of living cells (CFU/mL) of each tube using the agar plate count method. Samples were immediately serially diluted ten-fold in 0.01 M phosphate buffered saline (PBS, Bimed Lublin S.A., Lublin, Poland) at pH 7.0 and 10 μL aliquots were spot-inoculated in duplicate onto MHA plates. Agar plates were incubated at 37 °C overnight before determining the viable count. Two independent experiments were carried out.
# S. aureus ATCC 29213 [7] = assay: Time-kill test; format: cell-based, Staphylococcus aureus; settings: 1 × MIC
# Procedure: as §2
# [8] = tested on: Supercoiled plasmid pUC57 DNA; design: method as in PMID 35540189; settings: studied previously; cited from earlier work
# [9] = tested on: WM-115 melanoma cell line; settings: cited from earlier work
# [10] = read-out: IC50 (cytotoxicity), WM-115 melanoma cell line
Structure (SMILES),FIC (Oxa) (S. aureus ATCC 29213 [1]),FIC (Van) (S. aureus ATCC 29213 [1]),MIC Oxa in Combination (S. aureus ATCC 29213 [1]) [µg/mL],MIC Van in Combination (S. aureus ATCC 29213 [1]) [µg/mL],"Cell lysis, change of OD600 [2]",Change in bacterial viability (Hoechst 33258 / PI fluorescence) [3],Change in bacterial viability (Hoechst 33258 / PI fluorescence) [4],FIC (Oxa) [5],FIC (Van) [5],MIC Oxa in Combination [5] [µg/mL],MIC Van in Combination [5] [µg/mL],Time-kill: bacteriostatic or bactericidal [6],Time-kill: bacteriostatic or bactericidal (S. aureus ATCC 29213 [7]),Nicking of DNA Form I into Form II and III [8],"Correlation with Oxa and Van (synergy), in words (S. aureus ATCC 29213 [1])","Correlation with Oxa and Van (synergy), in words [5]","IC50 [9, 10] [µM]",IC50 [9] [µM]
Cc1cc(C)n(C(N)=S)n1.Cc1ccc(C(C)C)cc1.[Cl-].[Cl][Ru+] [Compound 2a],1,1,0.250,0.50,not found to change OD600 values,Less changes in cell survival,Less changes in cell survival,0.06,0.03,0.015,0.015,bacteriostatic,bacteriostatic,,,,,
CCc1cc(CC)n(C(N)=S)n1.Cc1ccc(C(C)C)cc1.[Cl-].[Cl][Ru+] [Compound 2b],0.5,0.5,0.125,0.25,not found to change OD600 values,Less changes in cell survival,Less changes in cell survival,0.06,0.03,0.015,0.015,bacteriostatic,bacteriostatic,nick the DNA Form I into Form II and III,synergistic effects,synergistic effect in all tested configurations,,
Cc1ccc(C(C)C)cc1.NC(=S)n1nc(-c2ccccc2)cc1O.[Cl-].[Cl][Ru+] [Compound 2c],0.5,0.5,0.125,0.25,quite moderate decrease in OD600,greatest changes in bacterial viability,greatest changes in bacterial viability,0.25,1,0.06,0.5,bactericidal,bacteriostatic,,synergistic effects,,26.7,
Cc1cc(O)n(C(N)=S)n1.Cc1ccc(C(C)C)cc1.[Cl-].[Cl][Ru+] [Compound 2d],0.5,1,0.125,0.50,,no significant changes in the viability,no significant changes in the viability,0.5,1,0.125,0.5,,,nick the DNA Form I into Form II and III,,,7.9,
"N.N.[Cl][Pt][Cl] [cisplatin, reference compound]",,,,,,,,,,,,,,,,,,18.2
